Experimental data taken from patent publication US20260285850A1, “SUBSTITUTED OXAZOLIDINONES AND IMIDAZOLINONES AS HERBICIDES” (FMC CORPORATION, priority 2023, published 2026).

How the values were obtained:
Format in all cases: in vivo
[1] = system: wheat (Triticum aestivum); test: Test A preemergence soil spray, visual injury rating 0-100; settings: 10 days
Outline: (§1)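 Preemergence directed soil spray or postemergence spray (2-10 cm, 1-2 leaf); loam/sand mix; compound in non-phytotoxic solvent + surfactant. Greenhouse, 10 d. Visual injury vs untreated, 0 = none, 100 = complete control.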

[2] = system: kochia (Bassia scoparia); test: as above; settings: 10 days
Outline: as §1

[3] = system: corn (Zea mays); test: as above; settings: 10 days
Outline: as §1

[4] = system: ragweed (common ragweed, Ambrosia artemisiifolia); test: as above; settings: 10 days
Outline: as §1

[5] = system: barnyardgrass (Echinochloa crus-galli); test: as above; settings: 10 days
Outline: as §1

[6] = system: palmer (palmer amaranth, palmer pigweed, Amaranthus palmeri); test: as above; settings: 10 days
Outline: as §1

[7] = system: ryegrass, Italian (italian ryegrass, Lolium multiflorum); test: as above; settings: 10 days
Outline: as §1

[8] = system: soybean (Glycine max); test: as above; settings: 10 days
Outline: as §1

[9] = system: green foxtail (Setaria viridis); test: as above; settings: 10 days
Outline: as §1

[10] = system: blackgrass (Alopecurus myosuroides); test: as above; settings: 10 days
Outline: as §1

[11] = system: oat, wild (wild oat, Avena fatua); test: as above; settings: 10 days
Outline: as §1

[12] = system: ducksalad (Heteranthera limosa); test: Test B flooded paddy test, visual plant response rating 0-100; settings: 250 g ai/ha, Flood, applied to paddy water, evaluated after 13 days
Outline: (§2)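 Paddy-water application: test compounds went directly into water flooded 3 cm above the soil surface, with plants at 2 leaves. After a 13-day greenhouse period, responses were judged by eye relative to controls; a dash marks an untested entry.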

[13] = system: rice (Oryza sativa); test: as above; settings: 250 g ai/ha, Flood, applied to paddy water, evaluated after 13 days
Outline: as §2

[14] = system: barnyardgrass (Echinochloa crusgalli); test: as above; settings: 250 g ai/ha, Flood, applied to paddy water, evaluated after 13 days
Outline: as §2

[15] = system: sedge, umbrella (small-flower umbrella sedge, Cyperus difformis); test: as above; settings: 250 g ai/ha, Flood, applied to paddy water, evaluated after 13 days
Outline: as §2

[16] = system: wheat (Triticum aestivum); test: Test A postemergence application, visual injury rating 0-100
Outline: as §1

[17] = system: kochia (Bassia scoparia); test: as above
Outline: as §1

[18] = system: corn (Zea mays); test: as above
Outline: as §1

[19] = system: ragweed (common ragweed, Ambrosia artemisiifolia); test: as above
Outline: as §1

[20] = system: barnyardgrass (Echinochloa crus-galli); test: as above
Outline: as §1

[21] = system: palmer (palmer amaranth, palmer pigweed, Amaranthus palmeri); test: as above
Outline: as §1

[22] = system: ryegrass, Italian (italian ryegrass, Lolium multiflorum); test: as above
Outline: as §1

[23] = system: galium (catchweed bedstraw, Galium aparine); test: as above
Outline: as §1

[24] = system: horseweed (Erigeron canadensis); test: as above
Outline: as §1

[25] = system: soybean (Glycine max); test: as above
Outline: as §1

[26] = system: green foxtail (Setaria viridis); test: as above
Outline: as §1

[27] = system: blackgrass (Alopecurus myosuroides); test: as above
Outline: as §1

[28] = system: oat, wild (wild oat, Avena fatua); test: as above
Outline: as §1

[29] = 62 g ai/ha, 0 = no effect, 100 = complete control
[30] = 62 g ai/ha, postemergence, 10 days, 0 = no effect, 100 = complete control
[31] = Postemergence, 16 g ai/ha, greenhouse 10 days, 0 no effect, 100 complete control

SMILES: CC(C)COC(=O)C1=CCC(NC(=O)C2(C)CN(c3cc(F)cc(Cl)c3)C(=O)O2)C1 (stereo not shown) [Compound 143]
- Wheat plant response rating ([1]; 16 g ai/ha, 0 to 100 scale): 0
- Wheat plant response rating (0-100) [1, 29]: 0
- Kochia plant response rating ([2]; 16 g ai/ha, 0 to 100 scale): 0
- Kochia plant response rating (0-100) [2, 29]: 0
- Corn plant response rating ([3]; 16 g ai/ha, 0 to 100 scale): 0
- Corn plant response rating (0-100) [3, 29]: 0
- Ragweed plant response rating ([4]; 16 g ai/ha, 0 to 100 scale): 0
- Ragweed plant response rating (0-100) [4, 29]: 0
- Barnyardgrass plant response rating ([5]; 16 g ai/ha, 0 to 100 scale): 0
- Barnyardgrass plant response rating (0-100) [5, 29]: 0
- Pigweed, Palmer plant response rating ([6]; 16 g ai/ha, 0 to 100 scale): 0
- Pigweed, Palmer plant response rating (0-100) [6, 29]: 0
- Ryegrass, Italian plant response rating ([7]; 16 g ai/ha, 0 to 100 scale): 0
- Ryegrass, Italian plant response rating (0-100) [7, 29]: 0
- Soybean plant response rating ([8]; 16 g ai/ha, 0 to 100 scale): 0
- Soybean plant response rating (0-100) [8, 29]: 0
- Foxtail, Green plant response rating ([9]; 16 g ai/ha, 0 to 100 scale): 0
- Foxtail, Green plant response rating (0-100) [9, 29]: 0
- Blackgrass plant response rating ([10]; 16 g ai/ha, 0 to 100 scale): 0
- Blackgrass plant response rating (0-100) [10, 29]: 0
- Oat, Wild plant response rating ([11]; 16 g ai/ha, 0 to 100 scale): 0
- Oat, Wild plant response rating (0-100) [11, 29]: 0
- Plant response rating, Ducksalad (0 to 100 scale, 0 is no effect and 100 is complete control) [12]: 60
- Plant response rating, Rice (0 to 100 scale, 0 is no effect and 100 is complete control) [13]: 10
- Plant response rating, Barnyardgrass (0 to 100 scale, 0 is no effect and 100 is complete control) [14]: 40
- Plant response rating, Sedge, Umbrella (0 to 100 scale, 0 is no effect and 100 is complete control) [15]: 45
- Wheat plant response rating (0-100) [16, 30]: 0
- Wheat plant response rating (0 to 100 scale) [16, 31]: 0
- Kochia plant response rating (0-100) [17, 30]: 0
- Kochia plant response rating (0 to 100 scale) [17, 31]: 0
- Corn plant response rating (0-100) [18, 30]: 0
- Corn plant response rating (0 to 100 scale) [18, 31]: 0
- Ragweed plant response rating (0-100) [19, 30]: 0
- Ragweed plant response rating (0 to 100 scale) [19, 31]: 0
- Barnyardgrass plant response rating (0-100) [20, 30]: 0
- Barnyardgrass plant response rating (0 to 100 scale) [20, 31]: 0
- Pigweed, Palmer plant response rating (0-100) [21, 30]: 0
- Pigweed, Palmer plant response rating (0 to 100 scale) [21, 31]: 0
- Ryegrass, Italian plant response rating (0-100) [22, 30]: 0
- Ryegrass, Italian plant response rating (0 to 100 scale) [22, 31]: 0
- Galium plant response rating (0-100) [23, 30]: 0
- Galium plant response rating (0 to 100 scale) [23, 31]: 0
- Horseweed plant response rating (0-100) [24, 30]: 0
- Horseweed plant response rating (0 to 100 scale) [24, 31]: 0
- Soybean plant response rating (0-100) [25, 30]: 0
- Soybean plant response rating (0 to 100 scale) [25, 31]: 0
- Foxtail, Green plant response rating (0-100) [26, 30]: 0
- Foxtail, Green plant response rating (0 to 100 scale) [26, 31]: 0
- Blackgrass plant response rating (0-100) [27, 30]: 0
- Blackgrass plant response rating (0 to 100 scale) [27, 31]: 0
- Oat, Wild plant response rating (0-100) [28, 30]: 0
- Oat, Wild plant response rating (0 to 100 scale) [28, 31]: 0
